Results reported in US20120035206A1, “PREPARATION AND APPLICATION OF NOVEL ANTIBACTERIAL AND ANTICANCER COMPOUNDS AND THEIR DERIVATIVES” (priority 2009, published 2012).
Converted amounts (≈) assume the structure as drawn.

What was measured:
Assay type in all cases: cell-based
[1] = system: AS24391; test: In vitro anticancer MTT experiment; conditions: concentration 5 ug/ml, 48 h or 72 h, read-out: inhibition ratio AS24391
Procedure: (§1) In vitro anticancer experiments of 25 compounds as anti-bacterial and anti-cancer compounds in the patent were tested. In the test, 14 kinds of cancer cells were used as tested cancer cells. And the results obtained by MTT method were shown in table 2 (the inhibition ratio was obtained when the concentration was 5 ug/ml). Tested Cancer Cells: SGC7901, HTB-38HT-29, CRL-2233NU-398, CRL-1469PANC-1, B0192, HTB-131MDA-453, CRL-1435PC-3, FTC133, AS24391, HTB-95637. (Cancer cells were from Chinese Military Academy of Medical Sciences). Cells Culture: Culture solution was composed of RPMI 1640 medium, 10% (VAT) Fetal calf serum and 0.01% L-glutamine. Cultured cells were maintained at 37° C. in an incubator with 5% CO2. The cells at logarithmic growth phase were used in the experiment. MTT Experiment: Single cell suspension was obtained by digesting cells with 0.25% trypsin. The cells at logarithmic growth phase were collected and seeded in a 96-well plate at a concentration of 6000-7000 cells per well. After culturing for 12 h at 37° C. in the incubator with 5% CO2, the cells were again incubated with the tested compounds of various concentrations for 48 h or 72 h. Pure cultures and cells without drug were taken as blank reference and negative reference, and 8 Wells of each group were taken. Twenty microliter of MTT (5 mg/mL) was added to each well, and the mixed solutions were incubation for 4 h. The formazan product was dissolved by dimethyl sulfoxide (DMSO, 150 μL), and the optical density (O.D.) was read at 570 nm. The Inhibition Ratio was calculated by the following formula: Inhibition Ratio=(Anegative control−Asample)/(Anegative control−Ablank control)

[2] = system: L1210; test: In vitro anticancer MTT experiment; conditions: Mus musculus, concentration 5 ug/ml, 48 h or 72 h, read-out: inhibition ratio L1210
Procedure: as §1

[3] = system: SGC7901; test: In vitro anticancer MTT experiment; conditions: Homo sapiens, SGC-7901, concentration 5 ug/ml, 48 h or 72 h, read-out: inhibition ratio SGC7901
Procedure: as §1

[4] = system: HTB-95637; test: In vitro anticancer MTT experiment; conditions: concentration 5 ug/ml, 48 h or 72 h, read-out: inhibition ratio HTB-95637
Procedure: as §1

[5] = system: HTB-38HT-29; test: In vitro anticancer MTT experiment; conditions: concentration 5 ug/ml, 48 h or 72 h, read-out: inhibition ratio HTB-38HT-29
Procedure: as §1

[6] = system: HTB-131MDA-MB-453; test: In vitro anticancer MTT experiment; conditions: concentration 5 ug/ml, 48 h or 72 h, read-out: inhibition ratio HTB-131MDA-MB-453
Procedure: as §1

[7] = system: FTC 133; test: In vitro anticancer MTT experiment; conditions: Homo sapiens, concentration 5 ug/ml, 48 h or 72 h, read-out: inhibition ratio FTC 133
Procedure: as §1

[8] = system: CRL-1469PANC-1; test: In vitro anticancer MTT experiment; conditions: concentration 5 ug/ml, 48 h or 72 h, read-out: inhibition ratio CRL-1469PANC-1
Procedure: as §1

[9] = system: A375; test: In vitro anticancer MTT experiment; conditions: Homo sapiens, A-375, concentration 5 ug/ml, 48 h or 72 h, read-out: inhibition ratio A375
Procedure: as §1

[10] = system: CRL-1435PC-3; test: In vitro anticancer MTT experiment; conditions: concentration 5 ug/ml, 48 h or 72 h, read-out: inhibition ratio CRL-1435PC-3
Procedure: as §1

[11] = system: HTB-94; test: In vitro anticancer MTT experiment; conditions: concentration 5 ug/ml, 48 h or 72 h, read-out: inhibition ratio HTB-94
Procedure: as §1

[12] = system: L428; test: In vitro anticancer MTT experiment; conditions: Homo sapiens, L-428, concentration 5 ug/ml, 48 h or 72 h, read-out: inhibition ratio L428
Procedure: as §1

[13] = system: B01092; test: In vitro anticancer MTT experiment; conditions: concentration 5 ug/ml, 48 h or 72 h, read-out: inhibition ratio B01092
Procedure: as §1

[14] = system: Setosphaeria turcica; test: In vitro antibacterial (antifungal) test, two-fold dilution MIC; conditions: Exserohilum turcicum, RPMI 1640, culture 2-7 days
Procedure: (§2) In vitro antibacterial experiments of 25 compounds as anti-bacterial and anti-cancer compounds in the patent were tested using 14 kinds of bacteria. Tested bacteria: C. albicans, C. tropicalis, C. neoformans, E. floccosum, M. gypseum, A. niger, S. schenekn, C. parapsilosis, C. glabrata, C. Krusei, Trichoderma, Gibberella, Setrosphaeria turcica, Fusarium Oxysporum Vasinfectum. (Bacteria were from the Dermatology Hospital of Chinese Academy of Medical Sciences, Nanjing, China.)
(§3) The Preparation of tested Bacteria solution was following: incubated Bacteria were added to 5 ml physiological saline, and then they were mashed and placed with ultrasound. The solution was fully mixed, and insoluble substances were removed. The treated solution was called the original bacterium solution. In the test, the bacteria concentration in the original bacterium solution was adjusted to […].
(§4) Tested Methods: the tested compounds were dissolved in dimethyl sulfoxide. and the solution was diluted with sterile distilled water. And the distilled solution was added to sterilized RPMI 1640 medium. The concentration of the compounds were adjusted to 256, 128, 64, 32, 16, 8, 4, 2, 1, 0.5, 0.25, 0.125 ug*ml-1. Then the adjusted solutions were inoculated with tested bacteria, and the tested systems were placed in the constant temperature oven to culture for 2-7 days. The concentration at which there was no growing of fungi was taken as the minimum inhibitory concentration (MIC).

[15] = system: S. schenekn; test: as above; conditions: RPMI 1640, culture 2-7 days
Procedure: as §2, §3, §4

[16] = system: E. floccosum; test: as above; conditions: Epidermophyton floccosum, RPMI 1640, culture 2-7 days
Procedure: as §2, §3, §4

[17] = system: C. parapsilosis; test: as above; conditions: Lodderomyces parapsilosis, RPMI 1640, culture 2-7 days
Procedure: as §2, §3, §4

[18] = system: C. neoformans; test: as above; conditions: Cryptococcus neoformans, RPMI 1640, culture 2-7 days
Procedure: as §2, §3, §4

[19] = system: M. gypseum; test: as above; conditions: Nannizzia gypsea, RPMI 1640, culture 2-7 days
Procedure: as §2, §3, §4

[20] = system: Fusarium oxysporum vasinfectum; test: as above; conditions: RPMI 1640, culture 2-7 days
Procedure: as §2, §3, §4

[21] = system: C. Krusei; test: as above; conditions: Pichia kudriavzevii, RPMI 1640, culture 2-7 days
Procedure: as §2, §3, §4

[22] = system: C. glabrata; test: as above; conditions: Nakaseomyces glabratus, RPMI 1640, culture 2-7 days
Procedure: as §2, §3, §4

[23] = system: C. albicans; test: as above; conditions: Candida albicans, read-out: MIC C. albicas
Procedure: as §2, §3, §4

[24] = system: gibberella; test: as above; conditions: RPMI 1640, culture 2-7 days
Procedure: as §2, §3, §4

[25] = system: C. tropicalis; test: as above; conditions: Candida tropicalis, RPMI 1640, culture 2-7 days
Procedure: as §2, §3, §4

[26] = system: Terchoderma; test: as above; conditions: Trichoderma, RPMI 1640, culture 2-7 days
Procedure: as §2, §3, §4

[27] = system: CRL-2233SNU-398; test: In vitro anticancer MTT experiment; conditions: concentration 5 ug/ml, 48 h or 72 h, read-out: inhibition ratio CRL-2233SNU-398
Procedure: as §1

Row | SMILES | inhibition at 5 µg/mL [1] | inhibition at 5 µg/mL [2] | inhibition at 5 µg/mL [3] | inhibition at 5 µg/mL [5] | inhibition at 5 µg/mL [6] | inhibition at 5 µg/mL [7] | inhibition at 5 µg/mL [8] | inhibition at 5 µg/mL [9] | inhibition at 5 µg/mL [11] | inhibition at 5 µg/mL [12] | inhibition at 5 µg/mL [13] | MIC [15] | MIC [16] | MIC [17] | MIC [18] | MIC [19] | MIC [22] | MIC [24] | MIC [26] | inhibition at 5 µg/mL [27] | also measured
1 | Cc1cc2c(cc1F)CS/C(=C\Br)C2=O [Compound 16, (Z)-3-(bromomethylene)-7-fluoro-6-methylisothiochroman-4-one] | 57.8% | 85.9% | 56.7% | 48% | 46.3% | 46.5% | 57.9% | 30.5% | 63.2% | 43.1% | 60.4% | 8 µg/mL (≈ 27.9 µM) | 16 µg/mL (≈ 55.7 µM) | 4 µg/mL (≈ 13.9 µM) | 4 µg/mL (≈ 13.9 µM) | 16 µg/mL (≈ 55.7 µM) | 4 µg/mL (≈ 13.9 µM) | 32 µg/mL (≈ 111 µM) | 16 µg/mL (≈ 55.7 µM) | – | inhibition at 5 µg/mL [4]: 36%; inhibition at 5 µg/mL [10]: 56.9%; MIC [14]: 32 µg/mL (≈ 111 µM); MIC [20]: 16 µg/mL (≈ 55.7 µM); MIC [21]: 32 µg/mL (≈ 111 µM); MIC [23]: 32 µg/mL (≈ 111 µM); MIC [25]: 32 µg/mL (≈ 111 µM)
2 | O=C1/C(=C\Cl)CSc2sccc21 [Compound 24, (E)-5-(chloromethylene)-5,6-dihydro-4H-thieno[2,3-b]thiopyran-4-one] | 37% | 85.4% | 33.9% | 43.4% | 47.6% | 45.8% | – | 32.5% | 51.3% | 47.7% | 56.8% | 32 µg/mL (≈ 148 µM) | 16 µg/mL (≈ 73.8 µM) | 4 µg/mL (≈ 18.5 µM) | 16 µg/mL (≈ 73.8 µM) | 8 µg/mL (≈ 36.9 µM) | 16 µg/mL (≈ 73.8 µM) | 4 µg/mL (≈ 18.5 µM) | 16 µg/mL (≈ 73.8 µM) | 45.6% | inhibition at 5 µg/mL [10]: 39.4%; MIC [14]: 16 µg/mL (≈ 73.8 µM); MIC [20]: 16 µg/mL (≈ 73.8 µM); MIC [21]: 32 µg/mL (≈ 148 µM); MIC [23]: 16 µg/mL (≈ 73.8 µM); MIC [25]: 8 µg/mL (≈ 36.9 µM)
3 | Cc1ccc(S/C=C2/CSc3ccc(F)cc3C2=O)cc1F [Compound 23, (E)-6-fluoro-3-(((3-fluoro-4-methylphenyl)thio)methylene)thiochroman-4-one] | 44.5% | 37.6% | – | 56.1% | 53.5% | 42.4% | 34.2% | 49.2% | 47.9% | 59.5% | 39% | 64 µg/mL (≈ 191 µM) | 64 µg/mL (≈ 191 µM) | – | 16 µg/mL (≈ 47.8 µM) | – | 64 µg/mL (≈ 191 µM) | 16 µg/mL (≈ 47.8 µM) | – | 53.3% | inhibition at 5 µg/mL [4]: 50.6%; inhibition at 5 µg/mL [10]: 43.9%
4 | Cc1ccc(SC2/C(=C/Cl)CSc3ccc(C)cc32)cc1 (centres unmarked) [Compound 29, (E)-3-(chloromethylene)-6-methyl-4-(p-tolylthio)thiochroman] | 15.2% | 33.6% | 23.3% | 19.2% | – | 32.2% | 17.4% | 30.2% | 23.4% | 13.2% | 26.5% | 32 µg/mL (≈ 96.1 µM) | 64 µg/mL (≈ 192 µM) | 32 µg/mL (≈ 96.1 µM) | – | 64 µg/mL (≈ 192 µM) | – | 16 µg/mL (≈ 48.1 µM) | 64 µg/mL (≈ 192 µM) | 21.5% | –
5 | Cc1ccc2c(c1)C(=O)/C(=C/Cl)CS2 [Compound 5, (Z)-3-(chloromethylene)-6-methylthiochroman-4-one] | 49.8% | 87.6% | 62.1% | – | – | 60.2% | 40.9% | 65.9% | – | 46.8% | 58% | 8 µg/mL (≈ 35.6 µM) | – | 8 µg/mL (≈ 35.6 µM) | 0.5 µg/mL (≈ 2.23 µM) | 4 µg/mL (≈ 17.8 µM) | 2 µg/mL (≈ 8.9 µM) | 16 µg/mL (≈ 71.2 µM) | 32 µg/mL (≈ 142 µM) | 60.1% | inhibition at 5 µg/mL [4]: 76.6%; inhibition at 5 µg/mL [10]: 55.6%; MIC [14]: 8 µg/mL (≈ 35.6 µM); MIC [20]: 8 µg/mL (≈ 35.6 µM); MIC [21]: 4 µg/mL (≈ 17.8 µM); MIC [23]: 8 µg/mL (≈ 35.6 µM); MIC [25]: 32 µg/mL (≈ 142 µM)
6 | O=C1/C(=C/Cl)SCc2ccc(F)cc21 [Compound 15, (Z)-3-(chloromethylene)-6-fluoroisothiochroman-4-one] | 46.8% | 80.9% | 47.6% | 57% | 58% | 45.9% | 36.8% | 60.2% | 60.5% | 55.4% | 49.5% | 32 µg/mL (≈ 140 µM) | 8 µg/mL (≈ 35 µM) | 16 µg/mL (≈ 70 µM) | 32 µg/mL (≈ 140 µM) | 4 µg/mL (≈ 17.5 µM) | 4 µg/mL (≈ 17.5 µM) | 16 µg/mL (≈ 70 µM) | 32 µg/mL (≈ 140 µM) | 45% | MIC [14]: 16 µg/mL (≈ 70 µM); MIC [20]: 8 µg/mL (≈ 35 µM); MIC [21]: 32 µg/mL (≈ 140 µM); MIC [23]: 8 µg/mL (≈ 35 µM); MIC [25]: 4 µg/mL (≈ 17.5 µM)
